Legend:
Assay in all cases: CellTiter-Glo cell viability, IC50 determination
Assay type in all cases: cell-based
BxPc-3 = conditions: Homo sapiens, 72 h; BxPc-3 cell line; 3-day CTG assay; read-out: Absolute IC50
Protocol: (§1) All the cells will be cultured in the media supplemented with 10% FBS except for which are marked specially, in the temperature of 37° C., 5% CO2 and 95% humidity.
(§2) Cell viability is assayed by using CellTiter-Glo® Luminescent Cell Viability Assay Kit (Cat. No.: G7572, Promega. Store at −20° C.). To prepare the CellTiter_Glo Reagent, the CellTiter-Glo Buffer was thawed and equilibrated to room temperature prior to use. For convenience the CellTiter-Glo Buffer may be thawed and stored at room temperature for up to 48 hours prior to use. The lyophilized CellTiter-Glo Substrate is equilibrated to room temperature prior to use. The appropriate volume (100 ml) of CellTiter-Glo Buffer is transferred into the amber bottle containing CellTiter-Glo Substrate to reconstitute the lyophilized enzyme/substrate mixture, which forms the CellTiter-Glo Reagent. In certain cases, the entire liquid volume of the CellTiter-Glo Buffer bottle may be added to the CellTiter-Glo Substrate vial. Mix by gently vortexing, swirling or by inverting the contents to obtain a homogeneous solution. The CellTiter-Glo Substrate should go into solution easily in less than one minute.
(§3) The day before the experiment (Day −1), cells were dissociated during the logarithmic growth period with Cell Disassociation Buffer (Gibco 13151-014) and mixed with appropriate cell media and centrifuge at 1000 rpm for 3 minutes. The cells were re-suspended and counted using Countstar before adjusting cell concentrations to optimized density (i.e. 4.44×10^4 cells/ml) with respective culture medium listed in Table 1 for 3-day CTG assay (The cell density was optimized before actual study; cell density used in the test may vary for different cell lines). 90 μl cell suspensions were added to two 96-well plates (plates A and B) with the final cell density of 4×10^3 cells/well for 3-day CTG assay (the cell density was optimized before actual study; cell density used in the test may vary for different cell lines). The plate A and B group were incubated for overnight in humidified incubator at 37° C. with 5% CO2.
(§4) On Day 0, for plate A group, 10 μl culture medium was added to each well for T0 reading. CellTiter-Glo® Reagent was added at equal volume of cell culture medium present in each well (e.g., add 100 μl of reagent to 100 μl of medium containing cells for a 96-well plate). Contents were mixed for 2 minutes on an orbital shaker to facilitate cell lysis. The plate was allowed to incubate at room temperature for 10 minutes to stabilize luminescent signal. Backseal black sticker was added to the bottom of each plate. Luminescence was recorded using EnVision Multi Label Reader. This formed the basis for T0 value.
(§5) On Day 0, the test articles and positive controls were dissolved at the concentration indicated at Test Article Dilution map. 100× solution in PBS was prepared and then diluted with appropriate culture media (1:10) into 10×working solutions. 10 μl (10×) drug solutions were dispensed in each well (triplicate for each drug concentration) of the plate B group according to plate inoculation map. The test plates were incubated for […] in the humidified incubator at 37° with 5% CO2.
(§6) On Day 3, CellTiter-Glo® Reagent was added at equal volume of cell culture medium present in each well (e.g., add 100 μl of reagent to 100 μl of medium containing cells for a 96-well plate). Contents were mixed for 2 minutes on an orbital shaker to induce cell lysis. The plate was allowed to incubate at room temperature for 10 minutes to stabilize luminescent signal. Backseal black sticker was placed to the bottom of each plate. Luminescence was recorded using EnVision Multi Label Reader.
(§7) In order to calculate IC50s, a dose-response curve was fitted using a nonlinear regression model with a sigmoidal dose response. The formula for calculating surviving rate was shown below; Absolute IC50 is calculated where Y axis set at 50% using GraphPad Prism 5.0. Software. […]

HCC4006 = conditions: Homo sapiens, 72 h; HCC4006 cell line; 3-day CTG assay; read-out: Absolute IC50
Protocol: as §1, §2, §3, §4, §5, §6, §7

PANC-1 = conditions: Homo sapiens, 72 h; PANC-1 cell line; 3-day CTG assay; read-out: Absolute IC50
Protocol: as §1, §2, §3, §4, §5, §6, §7

HM-7 = conditions: 72 h; HM-7 cell line; 3-day CTG assay; read-out: Absolute IC50
Protocol: as §1, §2, §3, §4, §5, §6, §7

HT29 = conditions: Homo sapiens, HT-29, 72 h; HT29 cell line; 3-day CTG assay; read-out: Absolute IC50
Protocol: as §1, §2, §3, §4, §5, §6, §7

Sk-Hep-1 = conditions: Homo sapiens, SK-HEP1, 72 h; Sk-Hep-1 cell line; 3-day CTG assay; read-out: Absolute IC50
Protocol: as §1, §2, §3, §4, §5, §6, §7

NCI-H1666 = conditions: Homo sapiens, 72 h; NCI-H1666 cell line; 3-day CTG assay; read-out: Absolute IC50
Protocol: as §1, §2, §3, §4, §5, §6, §7

LoVo = conditions: Homo sapiens, 72 h; LoVo cell line; 3-day CTG assay; read-out: Absolute IC50
Protocol: as §1, §2, §3, §4, §5, §6, §7

SNU-1 = conditions: Homo sapiens, SNU1, 72 h; SNU-1 cell line; 3-day CTG assay; read-out: Absolute IC50
Protocol: as §1, §2, §3, §4, §5, §6, §7

SW620 = conditions: Homo sapiens, SW-620, 72 h; SW620 cell line; 3-day CTG assay; read-out: Absolute IC50
Protocol: as §1, §2, §3, §4, §5, §6, §7

NCI-H358 = conditions: Homo sapiens, 72 h; NCI-H358 cell line; 3-day CTG assay; read-out: Absolute IC50
Protocol: as §1, §2, §3, §4, §5, §6, §7

NCI-H1792 = conditions: Homo sapiens, 72 h; NCI-H1792 cell line; 3-day CTG assay; read-out: Absolute IC50
Protocol: as §1, §2, §3, §4, §5, §6, §7

RKO = conditions: Homo sapiens, 72 h; RKO cell line; 3-day CTG assay; read-out: Absolute IC50
Protocol: as §1, §2, §3, §4, §5, §6, §7

HCT116 = conditions: Homo sapiens, HCT-116, 72 h; HCT116 cell line; 3-day CTG assay; read-out: Absolute IC50
Protocol: as §1, §2, §3, §4, §5, §6, §7

Compound | IC50 (BxPc-3) | IC50 (HCC4006) | IC50 (PANC-1) | IC50 (HM-7) | IC50 (HT29) | IC50 (Sk-Hep-1) | IC50 (NCI-H1666) | IC50 (LoVo) | IC50 (SNU-1) | IC50 (SW620) | IC50 (NCI-H358) | IC50 (NCI-H1792) | IC50 (RKO) | IC50 (HCT116)
O=C(Nc1ccc2[nH]nc(-c3ccncc3)c2c1)[C@@H]1CCN(CC(=O)N2CCN(c3ccc(-c4ncccn4)cc3)CC2)C1 [SCH772984, (R)-1-(2-oxo-2-(4-(4-(pyrimidin-2-yl)phenyl)piperazin-1-yl)ethyl)-N-(3-(pyridin-4-yl)-1H-indazol-5-yl)pyrrolidine-3-carboxamide] | 320 nM | 2770 nM | 64300 nM | 790 nM | 230 nM | 5290 nM | 920 nM | 410 nM | 640 nM | 260 nM | 520 nM | 4700 nM | 17500 nM | 450 nM
CC(=O)Nc1cccc(-n2c(=O)n(C3CC3)c(=O)c3c(Nc4ccc(I)cc4F)n(C)c(=O)c(C)c32)c1 [Trametinib, N-(3-{3-Cyclopropyl-5-[(2-fluoro-4-iodophenyl)amino]-6,8-dimethyl-2,4,7-trioxo-3,4,6,7-tetrahydropyrido[4,3-d]pyrimidin-1(2H)-yl}phenyl)acetamide] | 30 nM | 410 nM | 330000 nM | 390 nM | 10 nM | 29100 nM | 130 nM | 110 nM | 100 nM | 10 nM | 50 nM | 160 nM | 6700 nM | 40 nM

Reference: US10501805B2, “Methods for determining responsiveness to MEK/ERK inhibitors” (CROWN BIOSCIENCE, INC. (TAICANG), priority 2014, dated 2019)
